{"source": "patent US11033545B2", "about": "“Negative allosteric modulators of MGLUR5 for use in the treatment of mature brain damages” (Sinntaxis AB, priority 2016, dated 2021)", "key": {"male C57/BL6 mice [1]": {"system": "male C57/BL6 mice", "assay": "Infarct size after photothrombotic stroke in the mouse", "format": "in vivo", "conditions": "5 mg/kg i.p. for 5 days, FIG. 2B", "protocol": "Tissue collection. The animals were deeply anesthetized (isoflurane) and perfusion-fixed with 4% paraformaldehyde (PFA) solution. Brains were collected and immersed in 4% PFA solution for 4 h, then transferred into a 25% sucrose phosphate buffer solution (0.1 M NaH2PO4, 0.1 M Na2HPO4) and stored at 4° C. Brains were then cut in 30 μm slices using a microtome and one slice was kept each 1 mm for infarct size measurement. The others were kept for immunohistochemistry and immunofluorescence. All the slices were stored in anti-freeze solution (30% ethylene glycol, 30% glycerol, 0.01 M NaH2PO4, 0.03 M Na2HPO4) at −20° C.\nImmunohistochemistry. Free-floating brain slices were rinsed three times in PBS (phosphate buffer saline) and quenched in 3% H2O2 and 10% MetOH for 15 minutes. […]\nInfarct measurements. […] Twelve slices 1 mm apart, were scanned, and the non-lesioned area of the infarcted hemisphere and the non-lesioned contralateral hemisphere were outlined and measured using the ImageJ software (National Institute of Health, USA). Infarct volume (mm^3) was determined by subtracting the area of the non-lesioned ipsilateral hemisphere from that of the intact contralateral hemisphere, and calculated by volumetric integration for each animal. […]\nThe animals were perfused and immunostained as in Example 1, and the infarct size was assessed as in Example 1."}, "male C57/BL6 mice [2]": {"system": "male C57/BL6 mice", "assay": "Paw placement test after photothrombotic stroke in the mouse", "format": "in vivo", "conditions": "mouse; five days treatment initiated 10 days after stroke; FIG. 2C", "protocol": "Animals. All experiments were carried out with the approval of the Malmo-Lund animal review board and according to the ARRIVE guidelines. The experiments were carried out on male C57/BL6 mice (8 weeks of age, Charles River Scanbur A/S Karlslunde, Denmark). Studies were subjected to randomization and carried out in a blinded fashion to the investigators who performed the surgeries and behavioral assessment.\nMaterials were as in Example 1 and the administration of the drug was made as in Example 1. Also the positive allosteric modulator (PAM) for the mGlur5 receptor was SIN006 (N-Cyclobutyl-6-[2-(3-fluorophenyl)ethynyl]-3-pyridinecarboxamide hydrochloride; VU0360172).\nInduction of stroke in the mouse. Mice were subjected to unilateral photothrombotic (PT) cortical infarct in the left sensori-motor cortex. During surgery, the body temperature of the animals was kept at 37° C. using a self-regulating heating pad. Animals were anesthetized using 1.5-2.5% isoflurane (Sigma) in 100% 02. The skin above the skull was incised; a fiber optic bundle with a 2.5 mm aperture diameter was connected to a cold light source (CL 1500 ECO, Zeiss, Germany) and adjusted to the stereotaxic coordinates of the sensori-motor cortex, 0.5 mm anterior to bregma and 1.5 mm lateral to midline. One intraperitoneal (i.p.) injection of 0.25 ml Rose Bengal (10 mg/ml in 0.9% saline; Sigma-Aldrich, Germany) was given 5 min before the light was turned on for 20 minutes. Care was taken not to exceed 38° C. at the skull surface, underneath the fiber optic bundle. Post surgery, animals were allowed to awake from anesthesia while on a heating pad and returned to the cages with free access to food pellets and water.\nEnriched housing. It is well known that housing of rodents in an enriched environment stimulates the various sensori-motor systems of the brain enhancing recovery after experimental stroke. Enriched housing was accomplished by the following procedure. After selective sorting at day 2 after stroke, mice were randomly distributed into standard (STD, 17 cm×16 cm×34.5 cm) or enriched cages (EE, 30 cm×27 cm×43 cm). Multilevel-enriched cages were equipped with various colored objects such as plastic tunnels, small houses, slides and rodent running wheels; the disposition of the objects was changed every second day. Mice were housed in either standard (2 animals/cage) or enriched cages (6-8 animals/cage) for 12 days. Animals in standard cages were handled similarly except for the housing condition.\nPaw placement test. The mouse was held along its rostro-caudal extension on the edge of a bench and both the unilateral front and hind paws were gently pushed along it. The placement of each paw was recorded when the mouse was moved towards the edge. Sensori-motor dysfunction was assessed by using a score of 1, 0.5, and 0: (1)—the paw is immediately placed on the table surface; (0.5)—the limb is extended, but with some movements and attempts to place the paw on the surface of the table; (0)—the paw is totally immobilized, hanging down, with no movement. In order to obtain groups with a similar functional deficit prior to treatment of the animals with drugs or vehicle, selective sorting was performed on day 2 after experimental stroke, a time point of recovery when the infarct development had subsided.\nAdministration of the compounds. The compounds were administrated orally (p.o.) by catheters placed in the stomach. The amount of solutions were 0.2 ml/rat and 0.1 ml/mice.\nInduction of stroke was as made as in Example 1 for rats and as in Example 2 in mice. Assessment of neurological function was performed as in Example 1 for rats and as in Example 2 for mice. The animals were perfused and immunostained as in Example 1, and the infarct size was assessed as in Example 1."}}, "data": [{"smiles": "Cc1nc(C#Cc2cccnc2)cs1", "note": "[SIN007, 3-[(2methyl-1,3-thiazol-4-yl)ethynyl]pyridine]", "values": [{"measurement": "infarct size", "setting": "male C57/BL6 mice [1]", "value": "8.9±0.9", "unit": "mm^3"}, {"measurement": "mean infarct size compared to vehicle", "setting": "male C57/BL6 mice [1]", "value": "the mean infarct size was the same in the two groups"}, {"measurement": "recovery of function, delayed treatment", "setting": "male C57/BL6 mice [2]", "value": "the recovery of function is the same as when treatment is initiated at 2 days after stroke"}]}]}
